Data taken from article PMC9253272 (Frontiers in Pharmacology, 2022).
Counter-ions that a name gives are not always drawn. Like-named read-outs stand apart in the source and are kept apart here.

How the values were obtained:
AMPK [1] = assay: AMPK phosphorylation (p-AMPK Thr 172) by immunoblot in BV-2 microglial cells; format: cell-based; conditions: for onset time of AMPK activation: 1 mM, time course; for concentration at which activation of AMPK (p-AMPK) was observed (lowest effective): 1 h incubation
Protocol: When reached 80% confluence, cells were seeded in 12-well or 6-well plates to perform further experiments.

BV-2 microglial cells [2] = conditions: BV-2 cells, 1 mM, 1 h pre-incubation, LPS 200 ng/ml
Protocol: (§1) In brief, 50 μl cell supernatants were mixed with 50 μl Griess regent in 96-well-plate and reacted for about 5–10 min at room temperature. Read plate at 540 nm by a Microplate reader (Infinite M200, Molecular Device).
Data were presented as mean ± SD, statistical analysis was performed with one-way ANOVA followed by a Dunnett’s post hoc tests, ^∗∗ p < 0.01 versus LPS group; ^## p < 0.01, versus LPS with SHY-treated group. […] Results are expressed as mean ± SD (n = 5). Data are presented as mean ± SD, statistical analysis was performed with one-way ANOVA, followed by a Dunnett’s post hoc tests, ^∗∗ p < 0.01 versus LPS group; ^# p < 0.05, versus LPS with SHY-treated group.

[3] = rat plasma, 50 mg/kg i.p.
BV-2 microglial cells [4] = assay: Cellular pharmacokinetics: uptake of metformin into BV-2 microglia (LC-MS/MS); conditions: BV-2 cells
Text: (§2) The Michaelis-Menten equation with one saturable component was fit to the corrected uptake rate and the estimated Km and Vmax values are presented.

BV-2 microglial cells [5] = assay: LPS-induced nitrite release in BV-2 microglial cells (Griess reagent); format: cell-based; conditions: BV-2 cells; for IC50: pre-incubation 1 h (0.03-2.0 mM), then LPS 24 h
Protocol: as §1
Supernatants were collected for nitrite analysis.

[6] = system: primary rat cortical neurons; assay: Oxygen and glucose deprivation (OGD) of primary cortical neurons, MTT viability; format: cell-based; conditions: 0.5 and 1 mM, 24 h pre-treatment, OGD 3 h, reperfusion 24 h
Protocol: The culture medium was replenished with Neurobasal medium (Life Technologies) supplemented with 2% B27 (Life Technologies) 5 h after isolation, and half of the culture media was changed every 2 days, after 6 days of culture, and the neurons were used for further experiments.
Cells were transferred to a hypoxia incubator with 1% oxygen and 5% CO2 for 3 h. […] Control cells were not submitted to OGD and were maintained under normal conditions.

tMCAO rats = conditions: 50 mg/kg/day i.p., four weeks after tMCAO
[7] = system: rat primary cortical neurons; conditions: microglia treated with 1 mM, LPS 24 h; neurons 24 h
Protocol: Primary rat cortical microglia cells were prepared from newborn to 2–3 days-old SD strains. […] The supernatant was discarded after centrifuging at 1,100 × rpm for 10 min, the pellet was resuspended, and cortices were fully dissociated by pipetting, the cell suspension was filtered through a 70 μm mesh and transferred into a 75-cm^2 culture flask with poly-L-lysine (PLL, Sigma-Aldrich) coated. Flasks were incubated at 37°C and 5% CO2, and half of the culture media were changed every 2 days, after 2 weeks of culture, primary microglia were harvested by shaking the flask for 2 h at 200 × rpm, and then seeded into new plates pre-coated with PLL. […]
The neuron culture medium was collected and LDH was measured by the LDH assay kit (BioAssay Systems) according to the manufacturer’s instructions.
Data were presented as mean ± SD, statistical analysis was performed with one-way ANOVA followed by a Dunnett’s post hoc tests, ^∗∗ p < 0.01 versus LPS group; ^## p < 0.01, versus LPS with SHY-treated group. […] Results are expressed as mean ± SD (n = 5). […] Cell viability was analyzed by MTT assay, results are expressed as mean ± SD (n = 8). […]

AMPK [8] = conditions: initial screening; ref Zhen et al., 2019; cited from earlier work
in vivo [9] = conditions: male, Sprague-Dawley, rat, plasma, ip, 50 mg/kg
in vivo [10] = conditions: male, Sprague-Dawley, rat, brain, 50 mg/kg
in vitro = conditions: mouse, BV-2 microglial cells
Text: as §2

AMPK [11] = system: AMPK; design: method as in Ma et al., 2014; conditions: ref Ma et al., 2014; cited from earlier work
[12] = 15 min uptake, Michaelis-Menten fit
[13] = rat brain, metformin measured, 50 mg/kg i.p.

CN(C)C(=N)NC(=N)N.O=C(O)[C@H](O)[C@@H](O)CO [SHY-01, metformin threonate]
p-AMPK level compared to the same concentration of metformin hydrochloride (AMPK [1]; BV-2 cells, 0.3 mM, 1 h): significantly higher | effect on LPS-reduced AMPK phosphorylation (AMPK [1]; BV-2 cells, 1 mM pre-incubation, LPS 200 ng/ml 0-4 h): significantly reverse | onset time of AMPK activation (AMPK [1]; BV-2 cells): 0.5 h | concentration at which activation of AMPK (p-AMPK) was observed (lowest effective) (AMPK [1]; BV-2 cells): 0.3 mM | time to activation of AMPK after treatment (AMPK [1]; discussion statement): ≤ 30 min | inhibition of LPS-induced pro-inflammatory cytokine expression (TNF-α, IL-1β, iNOS) compared with metformin hydrochloride (BV-2 microglial cells [2]): stronger effect | half-life (t 1/2) [3]: 8.22 ± 5.52 h | maximum plasma concentration (Cmax) [3]: 11.29 ± 3.9 ng/mL | AUC (0−t) ([3]; metformin measured): 11470 ± 35 ng·h/mL | AUC (0−∞) ([3]; metformin measured): 12240 ± 40 ng·h/mL | CLz ([3]; metformin measured): 4,116.73 ± 422.20 ml/hr/kg | Cmax ([3]; metformin measured): 11300 ± 3900 ng/mL | MRT (0−t) ([3]; metformin measured): 2.69 ± 0.45 H | MRT (0−∞) ([3]; metformin measured): 5.06 ± 2.54 H | Vz ([3]; metformin measured): 50,055.01 ± 36,787.23 ml/kg | t 1/2 ([3]; metformin measured): 8.22 ± 5.524 H | t max ([3]; metformin measured): 0.5 H | accumulation of metformin compared with the same concentration of metformin hydrochloride (BV-2 microglial cells [4]): more rapid | Vmax of metformin uptake (BV-2 microglial cells [4]; [12]): 9.5 ± 1.2 nmol/min/mg protein | intracellular metformin contents compared with metformin hydrochloride (BV-2 microglial cells [4]; LC-MS/MS): elevated intracellular metformin contents | Km (BV-2 microglial cells [4]; read-out: Km of metformin uptake, 15 min uptake, Michaelis-Menten fit): 7.2 ± 1.5 mM | IC50 (BV-2 microglial cells [5]): 302 µM | OGD-induced neuronal injury (cell viability, MTT) [6]: significantly prevented | Rope climbing test, difference between SHY-01 and metformin hydrochloride (tMCAO rats): did not differ | atrophic volume of the ischemic brain versus vehicle (tMCAO rats): effectively reduced | body weight changes, difference between SHY-01 and metformin hydrochloride (tMCAO rats): did not differ | brain atrophy compared with metformin hydrochloride (tMCAO rats): more potent reduction | neurologic score compared with metformin hydrochloride (tMCAO rats): significantly better improvement | spatial learning in the Morris water maze test compared with metformin hydrochloride (tMCAO rats): significantly better improvement | LDH release of neurons in response to conditioned medium of LPS-activated microglia, versus control or metformin hydrochloride [7]: remarkably decrease | metformin concentration in the brain (1 h after 50 mg/kg i.p.): 0.32 ± 0.023 µg/g | metformin concentration in the brain (2 h after 50 mg/kg i.p.): 0.25 ± 0.032 µg/g | AUC (0−t) [13]: 1870 ± 230 ng·h/mL | AUC (0−∞) [13]: 2050 ± 180 ng·h/mL | Cmax [13]: 520 ± 110 ng/mL | MRT (0−t) [13]: 5.73 ± 0.63 h | MRT (0−∞) [13]: 8.19 ± 0.66 h | t max [13]: 0.5 h | potency on AMPK activation among the metformin salts screened (AMPK [8]): strongest potency

CN(C)C(=N)N=C(N)N [metformin hydrochloride]
AUC (in vivo [9]): 7170 ± 275 ng·h/mL | AUC(0-inf) (in vivo [9]): 7170 ± 280 ng·h/mL | AUC(0-t) (in vivo [9]): 6590 ± 270 ng·h/mL | Cmax (in vivo [9]): 6630 ± 2100 ng/mL | MRT inf (in vivo [9]): 6.06 ± 1.73 h | MRT last (in vivo [9]): 3.48 ± 0.65 h | t max (in vivo [9]): 0.5 h | onset time of AMPK activation (AMPK [1]; BV-2 cells): 4 h | concentration at which activation of AMPK (p-AMPK) was observed (lowest effective) (AMPK [1]; BV-2 cells): 1.0 mM | CLz ([3]; metformin measured): 7,068.89 ± 949.45 ml/hr/kg | Cmax ([3]; metformin measured): 6640 ± 2110 ng/mL | Vz ([3]; metformin measured): 79,683.93 ± 23,176.87 ml/kg | concentration at 1 h (in vivo [10]; intraperitoneal): 190 ± 32 ng/g | concentration at 2 h (in vivo [10]; intraperitoneal): 110 ± 12 ng/g | AUC(0-inf) (in vivo [10]; ip): 1890 ± 80 ng·h/mL | AUC(0-t) (in vivo [10]; ip): 1600 ± 180 ng·h/mL | Cmax (in vivo [10]; ip): 320 ± 80 ng/g | MRT inf (in vivo [10]; ip): 12.2 ± 2.9 h | MRT last (in vivo [10]; ip): 7.71 ± 0.45 h | t max (in vivo [10]; ip): 0.5 h | Km at 15 min (in vitro): 7.1 ± 1.7 mM | Vmax of metformin uptake (BV-2 microglial cells [4]; [12]): 4.6 ± 0.6 nmol/min/mg protein | IC50 (BV-2 microglial cells [5]; Mus musculus): 1070 µM | OGD-induced neuronal injury (cell viability, MTT) [6]: did not elicit such an effect | treatment time required to activate AMPK (AMPK [11]): ≥ 4 h | atrophic volume of the ischemic brain versus vehicle (tMCAO rats): effectively reduced

c1cc(-c2cnn3cc(-c4ccc(OCCN5CCCCC5)cc4)cnc23)ccn1 [compound C]
effect on the inhibitory effect of SHY-01 on LPS-induced nitrite, TNF-α and IL-1β (BV-2 microglial cells [5]; compound C 10 μM 1 h pre-incubation, SHY-01 1 mM, LPS 200 ng/ml): abolished
